#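 Values below derive from 48-hour exposures of cells grown in 96-well plates, with endpoints linearly interpolated between the two concentrations bracketing the appropriate inhibition level. GI50 = concentration required for 50% inhibition of growth. TGI is the concentration that stops growth completely.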
# Tests used:
# Experiment in all cases: DTP human tumour cell line panel, 48 h
# [1] = tested on: UO-31 renal
# [2] = tested on: HCT-116 colon
# [3] = tested on: SF-295 CNS
# [4] = tested on: M19-MEL melanoma
# [5] = tested on: OVCAR-5 ovarian
# [6] = tested on: DU-145 prostate
# [7] = tested on: RXF 393 renal
# [8] = tested on: NCI-H460 lung
# [9] = tested on: NCI-H226 lung
# [10] = tested on: SNB-78 CNS
Compound,TGI [1] [µM],TGI [2] [µM],TGI [3] [µM],TGI [4] [µM],TGI [5] [µM],TGI [6] [µM],TGI [7] [µM],TGI [8] [µM],TGI [9] [µM],TGI [10] [µM],GI50 [1] [µM],GI50 [2] [µM],GI50 [3] [µM],GI50 [4] [µM],GI50 [5] [µM],GI50 [7] [µM],GI50 [8] [µM],GI50 [9] [µM],GI50 [10] [µM]
COc1ccccc1C(=O)Nc1ccc(Cl)c(C(=O)OC(C)C)c1,27.9,> 95,> 100,> 100,> 83.4,> 100,> 100,> 100,> 100,> 100,–,–,–,–,–,–,–,–,–
C=CC(=O)OCCCS(=O)(=O)[O-].C=CC(=O)OCCCS(=O)(=O)[O-].NC1CCCCC1N.[Pt+4],> 25,> 25,> 25,> 25,> 25,–,> 25,> 25,> 25,> 25,> 25,> 25,> 25,> 25,> 25,> 25,> 25,> 25,> 25
O=C(CC(=O)c1cccc2ccccc12)C(=O)Nc1nccs1,> 100,> 100,> 100,> 100,> 100,–,> 100,> 100,> 100,> 100,–,–,–,–,–,–,–,–,–
O=c1c2cc(Br)ccc2n(C2OC(CO)C(O)C(O)C2O)c(=S)n1-c1ccccc1 (configuration not stated),> 100,> 100,> 100,> 100,> 100,–,> 100,> 100,> 100,> 100,–,–,–,–,–,–,–,–,–
Cc1c(-c2cc(-c3ccccc3)n[nH]c2=O)c2ccccc2n1C,> 100,> 100,> 100,> 100,> 100,–,> 100,> 100,> 100,> 100,–,–,–,–,–,–,–,–,–
CC(C)=CC1(C)/C(=N\O)C(C)(CC(C)C)C(=O)N1O (configuration not stated),> 100,> 100,> 100,> 100,> 100,–,> 100,> 100,> 100,> 100,–,–,–,–,–,–,–,–,–
CCCCCCCCCCCc1cc(=O)c2c(O)cccc2o1,> 100,> 100,> 100,> 100,> 100,–,> 100,> 100,> 100,> 100,–,–,–,–,–,–,–,–,–
COc1ccccc1NC(=O)C1=C(C)NC(C)=C(C(=O)Nc2ccccc2OC)C1c1ccc(C2C(C(=O)Nc3ccccc3OC)=C(C)NC(C)=C2C(=O)Nc2ccccc2OC)cc1,14.9,2.7,6.28,11.5,10.7,–,5.06,12.6,12.1,23.3,–,–,–,–,–,–,–,–,–
